The supplement of paper PMC10307832

What was measured:
Assay in all cases: relative viability (nuclei count vs DMSO), 5 days (fraction); higher = more cells survive
[1] = compound: CCn1c(-c2nonc2N)nc2cnc(Oc3cccc(NC(=O)c4ccc(OCCN5CCOCC5)cc4)c3)cc21 + Nc1ncn([C@H]2C[C@H](O)[C@@H](CO)O2)c(=O)n1 [Decitabine] (partner 2 µM)
In short: (§1)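 Each reported value is a median over duplicate plates. It expresses relative viability: treated-well nuclei count divided by vehicle-well nuclei count. Lung cancer cell lines in 1536-well plates were dosed by pin tool a day after seeding, alone with one drug or with a fixed anchor-drug dose plus five library-drug doses (not always all listed) in √10 steps, and nuclei were counted after 5 days.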

Mirin + Palbociclib = compound: N=C1NC(=O)/C(=C/c2ccc(O)cc2)S1 [Mirin] + CC(=O)c1c(C)c2cnc(Nc3ccc(N4CCNCC4)cn3)nc2n(C2CCCC2)c1=O [Palbociclib] (partner 0.5 µM)
In short: as §1

Mirin + Vorinostat = compound: N=C1NC(=O)/C(=C/c2ccc(O)cc2)S1 [Mirin] + O=C(CCCCCCC(=O)Nc1ccccc1)NO [Vorinostat] (partner 1 µM)
In short: as §1

[2] = compound: CCn1c(-c2nonc2N)nc2cnc(Oc3cccc(NC(=O)c4ccc(OCCN5CCOCC5)cc4)c3)cc21 + Cc1nc(NC(=O)N2CCC[C@H]2C(N)=O)sc1-c1ccnc(C(C)(C)C(F)(F)F)c1 [Alpelisib] (partner 2 µM)
In short: as §1

| Cell Line | relative viability ([1]; first compound 0.04 µM) | relative viability ([1]; first compound 0.1265 µM) | relative viability ([1]; first compound 0.4 µM) | relative viability ([1]; first compound 1.265 µM) | relative viability ([1]; first compound 4 µM) | relative viability (Mirin + Palbociclib; first compound 0.25 µM) | relative viability (Mirin + Palbociclib; first compound 0.7906 µM) | relative viability (Mirin + Palbociclib; first compound 2.5 µM) | relative viability (Mirin + Palbociclib; first compound 7.906 µM) | relative viability (Mirin + Palbociclib; first compound 25 µM) | relative viability (Mirin + Vorinostat; first compound 0.25 µM) | relative viability (Mirin + Vorinostat; first compound 0.7906 µM) | relative viability (Mirin + Vorinostat; first compound 2.5 µM) | relative viability (Mirin + Vorinostat; first compound 7.906 µM) | relative viability (Mirin + Vorinostat; first compound 25 µM) | relative viability ([2]; first compound 0.04 µM) | relative viability ([2]; first compound 0.1265 µM) | relative viability ([2]; first compound 1.265 µM) | relative viability ([2]; first compound 4 µM) | relative viability ([2]; first compound 0.4 µM) |
| --- | --- | --- | --- | --- | --- | --- | --- | --- | --- | --- | --- | --- | --- | --- | --- | --- | --- | --- | --- | --- |
| NCI-H522 | 0.672 | 0.819 | 0.698 | 0.648 | 0.621 | 1.02 | 0.943 | 1.19 | 0.875 | 0.605 | 1.04 | 1.1 | 0.89 | 0.692 | 0.695 | – | – | – | – | – |
| LCLC-97TM1 | 0.258 | 0.235 | – | 0.232 | 0.258 | 0.227 | 0.236 | 0.192 | 0.152 | 0.198 | 0.887 | 0.204 | 0.743 | 0.697 | 0.679 | 0.276 | 0.236 | 0.3 | 0.305 | – |
| NCI-H1299 | – | – | – | – | – | – | – | – | – | – | – | – | – | – | – | 0.991 | 0.891 | 0.912 | 0.861 | 0.836 |
| NCI-H322M | 0.585 | 0.63 | 0.824 | 0.767 | 0.648 | 0.466 | 0.497 | 0.521 | 0.553 | 0.522 | 1 | 0.87 | 0.93 | 1.28 | 1.11 | 0.895 | 0.816 | 0.939 | 0.909 | 0.759 |
| NCI-H1395 | 0.701 | 0.601 | 0.646 | 0.459 | 0.521 | 0.588 | – | 0.594 | 0.69 | 0.581 | 0.809 | – | 0.822 | 0.811 | 0.938 | 1.26 | 0.877 | 0.493 | 0.634 | 0.948 |
| NCI-H2009 | 0.292 | 0.304 | 0.25 | 0.216 | 0.175 | 0.221 | 0.262 | 0.162 | 0.202 | 0.238 | 0.716 | 0.875 | 0.738 | 0.673 | 0.784 | 1.01 | 0.987 | 0.745 | 0.5 | 0.857 |
| NCI-H1651 | 0.74 | 0.728 | 0.581 | 0.271 | 0.488 | 0.477 | 0.561 | 0.53 | 0.497 | 0.516 | 0.224 | 0.554 | 0.478 | 0.567 | 0.591 | 1.09 | 1.06 | 0.964 | 0.653 | 0.883 |
| HARA | 0.598 | 0.665 | 0.684 | 0.283 | 0.206 | 0.273 | 0.277 | 0.265 | 0.293 | 0.268 | 0.537 | 0.533 | 0.567 | 0.597 | 0.502 | 0.831 | 0.797 | 0.395 | 0.485 | 0.756 |
| NCI-H1944 | 0.416 | 0.414 | 0.425 | 0.442 | 0.428 | 0.315 | 0.325 | 0.328 | 0.287 | 0.226 | 0.511 | 0.494 | 0.649 | 0.449 | 0.511 | 0.934 | 0.809 | 0.781 | 0.789 | – |
| NCI-H2405 | 0.68 | 0.473 | 0.327 | 0.251 | 0.241 | 0.512 | – | 0.526 | 0.568 | 0.511 | 0.943 | – | 1.11 | 1.03 | 1.21 | 0.893 | 0.425 | 0.326 | 0.274 | 0.368 |
| Calu-6 | – | – | – | – | – | – | – | – | – | – | – | – | – | – | – | 0.861 | 0.827 | 0.477 | 0.455 | 0.582 |
| NCI-H1703 | – | – | – | – | – | – | – | – | – | – | – | – | – | – | – | 0.385 | 0.428 | 0.209 | 0.164 | 0.254 |
| NCI-H1650 | 0.504 | 0.282 | 0.348 | 0.604 | 0.478 | 0.362 | 0.346 | 0.336 | 0.369 | 0.263 | 0.497 | 0.656 | 0.51 | 0.482 | 0.495 | – | – | – | – | – |
| NCI-H2342 | 0.664 | 0.755 | 0.814 | 0.579 | 0.687 | 0.482 | 0.537 | 0.459 | – | 0.51 | 0.852 | 0.817 | 0.845 | – | 0.757 | – | – | – | – | – |
| NCI-H1792 | 0.45 | 0.637 | 0.461 | 0.433 | 0.372 | 0.561 | 0.714 | 0.664 | – | 0.608 | – | – | – | – | – | 0.84 | 0.773 | 0.551 | 0.629 | – |
| ChaGo-K-1 | 0.582 | 0.423 | 0.525 | 0.515 | 0.526 | 0.915 | 0.961 | 0.973 | 0.919 | 0.68 | 0.741 | 0.652 | 0.746 | 0.638 | 0.596 | – | – | – | – | – |
| CAL-12T | – | – | – | – | – | 0.265 | 0.193 | 0.508 | 0.408 | 0.339 | 0.622 | 0.868 | 0.886 | 0.828 | 0.697 | 1.75 | 1.49 | 1.23 | 0.786 | 1.51 |
| SW 900 | 0.412 | 0.453 | 0.42 | 0.442 | 0.456 | 0.478 | 0.485 | 0.499 | 0.464 | 0.503 | 0.608 | 0.482 | 0.423 | 0.583 | 0.401 | – | – | – | – | – |
| NCI-H1648 | 0.55 | 0.65 | 0.85 | 0.695 | 0.675 | 0.328 | – | 0.304 | 0.265 | 0.224 | 0.421 | – | 0.601 | 0.424 | 0.299 | – | – | – | – | – |
| IA-LM | – | – | – | – | – | – | – | – | – | – | 0.975 | 1.01 | 1.01 | – | 1.17 | 1.17 | 0.929 | 0.825 | 0.687 | 0.871 |
| A549 | 0.219 | 0.304 | 0.272 | – | 0.108 | – | – | – | – | – | – | – | – | – | – | 0.986 | 0.785 | 0.23 | 0.0785 | 0.426 |
| NCI-H2228 | – | – | – | – | – | 0.863 | 0.704 | 0.799 | 0.647 | 0.622 | 0.576 | 0.96 | 0.957 | 0.724 | 1 | 1.14 | 0.998 | 0.732 | 0.644 | 0.776 |
